Results reported in US20210292347A1, “DIHETEROCYCLIC TRIAZINONE NUCLEOSIDE ANALOGS AND THEIR USE FOR MEDICATION” (priority 2020, published 2021).

System: mice sarcoma S180
Assay: Growth inhibition of S180 sarcoma in mice
Assay type: in vivo, Kunming healthy mice
Details: for in-vivo anti-tumor efficacy, statistical significance (in words): S180 sarcoma in mice, doses and routes of Table 3
[1] = Mus musculus, S-180, mice, ip, 200 mg/kg, read-out: Inhibition rate (%) S180 sarcoma
[2] = Mus musculus, S-180, mice, ip, 100 mg/kg, read-out: Inhibition rate (%) S180 sarcoma
[3] = Mus musculus, S-180, mice, iv, read-out: Inhibition rate (%) S180 sarcoma

## 2-(3,4-dihydroxy-5-(hydroxymethyl)tetrahydrofuran-2-yl)-7-hydroxy-5-propyl-2,7-dihydro-1H-pyrazolo[4,3-d][1,2,3]triazin-1-one [Example 14]
  in-vivo anti-tumor efficacy, statistical significance (in words): statistically significant
mice, iv, 12.5 mg/kg
  Inhibition rate (%) S180 sarcoma: ++ (++ represent of Inhibition rate % <40)

## CN(C)CCC(=O)Nc1nn(O)c2c(=O)n(C3OC(CO)C(O)C3O)nnc12 (stereo not drawn) [Example 16, N-(3-(3,4-dihydroxy-5-(hydroxymethyl)tetrahydrofuran-2-yl)-5-hydroxy-4-oxo-4,5-dihydro-3H-pyrazolo[4,3-d][1,2,3]triazin-7-yl)-3-(dimethylamino) propanamide]
mice, ip, 100 mg/kg
  Inhibition rate (%) S180 sarcoma: + (+ represent of Inhibition rate % <20)

## N#Cc1nn(O)c2c(=O)n(C3OC(CO)C(O)C3O)nnc12 (stereo not drawn) [Example 17, 3-(3,4-dihydroxy-5-(hydroxymethyl)tetrahydrofuran-2-yl)-5-hydroxy-4-oxo-4,5-dihydro-3H-pyrazolo [4,3-d][1,2,3]triazine-7-carbonitrile]
Mus musculus, S-180, mice, iv, 25 mg/kg, read-out: Inhibition rate (%) S180 sarcoma
  inhibition in vivo at 25 mg/kg: < 40%
  in-vivo anti-tumor efficacy, statistical significance (in words): statistically significant

## O=c1c2c(nnn1C1OC(CO)C(O)C1O)c(N1CCCCC1)nn2O (stereo not drawn) [Example 18, 3-(3,4-dihydroxy-5-(hydroxymethyl)tetrahydrofuran-2-yl)-5-hydroxy-7-(piperidin-1-yl)-3H-pyrazolo [4,3-d][1,2,3]triazin-4(5H)-one]
[1]
  inhibition in vivo at 200 mg/kg: < 20%

## COc1ccc(C(=O)Nc2nn(O)c3c(=O)n(C4OC(CO)C(O)C4O)nnc23)cc1 (stereo not drawn) [Example 20, N-(3-(3,4-dihydroxy-5-(hydroxymethyl)tetrahydrofuran-2-yl)-5-hydroxy-4-oxo-4,5-dihydro-3H-pyrazolo[4,3-d][1,2,3]triazin-7-yl)-4-methoxybenzamide]
[1]
  inhibition in vivo at 200 mg/kg: < 20%

## CCOC(=O)c1nn(C)c2c(=O)n(C3OC(CO)C(O)C3O)nnc12 (stereo not drawn) [Example 22, ethyl 3-(3,4-dihydroxy-5-(hydroxymethyl)tetrahydrofuran-2-yl)-5-methyl-4-oxo-4,5-dihydro-3H-pyrazolo[4,3-d][1,2,3]triazine-7-carboxylate]
[1]
  inhibition in vivo at 200 mg/kg: < 40%
  in-vivo anti-tumor efficacy, statistical significance (in words): statistically significant

## CCCc1nn(C)c2c(=O)n(C3OC(CO)C(O)C3O)nnc12 (stereo not drawn) [Example 23, 3-(3,4-dihydroxy-5-(hydroxymethyl)tetrahydrofuran-2-yl)-5-methyl-7-propyl-3H-pyrazolo [4,3-d][1,2,3]triazin-4(5H)-one]
[2]
  inhibition in vivo at 100 mg/kg: < 40%
  in-vivo anti-tumor efficacy, statistical significance (in words): statistically significant

## Cn1nc(N)c2nnn(C3OC(CO)C(O)C3O)c(=O)c21 (stereo not drawn) [Example 24, 7-amino-3-(3,4-dihydroxy-5-(hydroxymethyl)tetrahydrofuran-2-yl)-5-methyl-3H-pyrazolo [4,3-d][1,2,3]triazin-4(5H)-one]
Mus musculus, S-180, mice, ip, 300 mg/kg, read-out: Inhibition rate (%) S180 sarcoma
  inhibition in vivo at 300 mg/kg: < 40%
  in-vivo anti-tumor efficacy, statistical significance (in words): statistically significant

## CN(C)CCC(=O)Nc1nn(C)c2c(=O)n(C3OC(CO)C(O)C3O)nnc12 (stereo not drawn) [Example 25, N-(3-(3,4-dihydroxy-5-(hydroxymethyl)tetrahydrofuran-2-yl)-5-methyl-4-oxo-4,5-dihydro-3H-pyrazolo[4,3-d][1,2,3]triazin-7-yl)-3-(dimethylamino) propanamide]
  in-vivo anti-tumor efficacy, statistical significance (in words): statistically significant
mice, ip, 200 mg/kg
  Inhibition rate (%) S180 sarcoma: ++ (++ represent of Inhibition rate % <40)

## Cn1nc(C#N)c2nnn(C3OC(CO)C(O)C3O)c(=O)c21 (stereo not drawn) [Example 26, 3-(3,4-dihydroxy-5-(hydroxymethyl)tetrahydrofuran-2-yl)-5-methyl-4-oxo-4,5-dihydro-3H-pyrazolo[4,3-d][1,2,3]triazine-7-carbonitrile]
Mus musculus, S-180, mice, ip, 70 mg/kg, read-out: Inhibition rate (%) S180 sarcoma
  inhibition in vivo at 70 mg/kg: < 40%
  in-vivo anti-tumor efficacy, statistical significance (in words): statistically significant

## Cn1nc(N2CCCCC2)c2nnn(C3OC(CO)C(O)C3O)c(=O)c21 (stereo not drawn) [Example 27, 3-(3,4-dihydroxy-5-(hydroxymethyl)tetrahydrofuran-2-yl)-5-methyl-7-(piperidin-1-yl)-3H-pyrazolo[4,3-d][1,2,3]triazin-4(5H)-one]
[3]
  inhibition in vivo at 15 mg/kg: < 20%

## Cn1nc([N+](=O)[O-])c2nnn(C3OC(CO)C(O)C3O)c(=O)c21 (stereo not drawn) [Example 28, 3-(3,4-dihydroxy-5-(hydroxymethyl)tetrahydrofuran-2-yl)-5-methyl-7-nitro-3H-pyrazolo [4,3-d][1,2,3]triazin-4(5H)-one]
Mus musculus, S-180, mice, iv, 20 mg/kg, read-out: Inhibition rate (%) S180 sarcoma
  inhibition in vivo at 20 mg/kg: < 40%
  in-vivo anti-tumor efficacy, statistical significance (in words): statistically significant

## COc1ccc(C(=O)Nc2nn(C)c3c(=O)n(C4OC(CO)C(O)C4O)nnc23)cc1 (stereo not drawn) [Example 29, N-(3-(3,4-dihydroxy-5-(hydroxymethyl)tetrahydrofuran-2-yl)-5-methyl-4-oxo-4,5-dihydro-3H-pyrazolo[4,3-d][1,2,3]triazin-7-yl)-4-methoxybenzamide]
[3]
  inhibition in vivo at 15 mg/kg: < 20%

## CCOC(=O)c1nn(CO)c2c(=O)n(C3OC(CO)C(O)C3O)nnc12 (stereo not drawn) [Example 30, ethyl 3-(3,4-dihydroxy-5-(hydroxymethyl)tetrahydrofuran-2-yl)-5-(hydroxymethyl)-4-oxo-4,5-dihydro-3H-pyrazolo [4,3-d][1,2,3]triazine-7-carboxylate]
Mus musculus, S-180, mice, ip, 400 mg/kg, read-out: Inhibition rate (%) S180 sarcoma
  inhibition in vivo at 400 mg/kg: < 40%
  in-vivo anti-tumor efficacy, statistical significance (in words): statistically significant

## CCCc1nn(CO)c2c(=O)n(C3OC(CO)C(O)C3O)nnc12 (stereo not drawn) [Example 31, 3-(3,4-dihydroxy-5-(hydroxymethyl)tetrahydrofuran-2-yl)-5-(hydroxymethyl)-7-propyl-3H-pyrazolo[4,3-d][1,2,3]triazin-4(5H)-one]
[2]
  inhibition in vivo at 100 mg/kg: < 40%
  in-vivo anti-tumor efficacy, statistical significance (in words): statistically significant

## Nc1nn(CO)c2c(=O)n(C3OC(CO)C(O)C3O)nnc12 (stereo not drawn) [Example 32, 7-amino-3-(3,4-dihydroxy-5-(hydroxymethyl)tetrahydrofuran-2-yl)-5-(hydroxymethyl)-3H-pyrazolo [4,3-d][1,2,3]triazin-4(5H)-one]
Mus musculus, S-180, mice, iv, 30 mg/kg, read-out: Inhibition rate (%) S180 sarcoma
  inhibition in vivo at 30 mg/kg: < 40%
  in-vivo anti-tumor efficacy, statistical significance (in words): statistically significant

## O=c1c2c(nnn1C1OC(CO)C(O)C1O)c([N+](=O)[O-])nn2CO (stereo not drawn) [Example 36, 3-(3,4-dihydroxy-5-(hydroxymethyl)tetrahydrofuran-2-yl)-5-(hydroxymethyl)-7-nitro-3H-pyrazolo [4,3-d][1,2,3]triazin-4(5H)-one]
[1]
  inhibition in vivo at 200 mg/kg: < 40%
  in-vivo anti-tumor efficacy, statistical significance (in words): statistically significant

## CCCc1nn(C2CC2)c2c(=O)n(C3OC(CO)C(O)C3O)nnc12 (stereo not drawn) [Example 40, 5-cyclopropyl-3-(3,4-dihydroxy-5-(hydroxymethyl)tetrahydrofuran-2-yl)-7-propyl-3H-pyrazolo[4,3-d][1,2,3]triazin-4(5H)-one]
[3]
  inhibition in vivo at 50 mg/kg: < 20%

## CCOC(=O)c1nn(CC(N)=O)c2c(=O)n(C3OC(CO)C(O)C3O)nnc12 (stereo not drawn) [Example 48, ethyl 5-(2-amino-2-oxoethyl)-3-(3,4-dihydroxy-5-(hydroxymethyl)tetrahydrofuran-2-yl)-4-oxo-4,5-dihydro-3H-pyrazolo[4,3-d][1,2,3]triazine-7-carboxylate]
[3]
  inhibition in vivo at 50 mg/kg: < 40%
  in-vivo anti-tumor efficacy, statistical significance (in words): statistically significant

## CCCc1nn(CC(N)=O)c2c(=O)n(C3OC(CO)C(O)C3O)nnc12 (stereo not drawn) [Example 49, 2-(3-(3,4-dihydroxy-5-(hydroxymethyl)tetrahydrofuran-2-yl)-4-oxo-7-propyl-3H-pyrazolo [4,3-d][1,2,3]triazin-5(4H)-yl)acetamide]
[2]
  inhibition in vivo at 100 mg/kg: < 40%
  in-vivo anti-tumor efficacy, statistical significance (in words): statistically significant

## NC(=O)Cn1nc(N)c2nnn(C3OC(CO)C(O)C3O)c(=O)c21 (stereo not drawn) [Example 50, 2-(7-amino-3-(3,4-dihydroxy-5-(hydroxymethyl)tetrahydrofuran-2-yl)-4-oxo-3H-pyrazolo[4,3-d][1,2,3]triazin-5(4H)-yl)acetamide]
[3]
  inhibition in vivo at 15 mg/kg: < 40%
  in-vivo anti-tumor efficacy, statistical significance (in words): statistically significant

## NC(=O)Cn1nc([N+](=O)[O-])c2nnn(C3OC(CO)C(O)C3O)c(=O)c21 (stereo not drawn) [Example 54, 2-(3-(3,4-dihydroxy-5-(hydroxymethyl)tetrahydrofuran-2-yl)-7-nitro-4-oxo-3H-pyrazolo [4,3-d][1,2,3]triazin-5(4H)-yl)acetamide]
Mus musculus, S-180, mice, ip, 150 mg/kg, read-out: Inhibition rate (%) S180 sarcoma
  inhibition in vivo at 150 mg/kg: < 40%
  in-vivo anti-tumor efficacy, statistical significance (in words): statistically significant

## CCCc1nn(C(N)=O)c2c(=O)n(C3OC(CO)C(O)C3O)nnc12 (stereo not drawn) [Example 55, 3-(3,4-dihydroxy-5-(hydroxymethyl)tetrahydrofuran-2-yl)-4-oxo-7-propyl-3H-pyrazolo [4,3-d][1,2,3]triazine-5(4H)-carboxamide]
[2]
  inhibition in vivo at 100 mg/kg: < 40%
  in-vivo anti-tumor efficacy, statistical significance (in words): statistically significant

## NC(=O)n1nc(N)c2nnn(C3OC(CO)C(O)C3O)c(=O)c21 (stereo not drawn) [Example 56, 7-amino-3-(3,4-dihydroxy-5-(hydroxymethyl)tetrahydrofuran-2-yl)-4-oxo-3H-pyrazolo[4,3-d][1,2,3]triazine-5(4H)-carboxamide]
[2]
  inhibition in vivo at 100 mg/kg: < 40%
  in-vivo anti-tumor efficacy, statistical significance (in words): statistically significant
